This is an account of results in patent US11548875B2, “Inhibitor compounds for male contraception” (University of Washington, priority 2018, dated 2023).

The target of one test is T1, ALDH1A1 (Homo sapiens, UniProt P00352).
T1 sequence (P00352 1-501): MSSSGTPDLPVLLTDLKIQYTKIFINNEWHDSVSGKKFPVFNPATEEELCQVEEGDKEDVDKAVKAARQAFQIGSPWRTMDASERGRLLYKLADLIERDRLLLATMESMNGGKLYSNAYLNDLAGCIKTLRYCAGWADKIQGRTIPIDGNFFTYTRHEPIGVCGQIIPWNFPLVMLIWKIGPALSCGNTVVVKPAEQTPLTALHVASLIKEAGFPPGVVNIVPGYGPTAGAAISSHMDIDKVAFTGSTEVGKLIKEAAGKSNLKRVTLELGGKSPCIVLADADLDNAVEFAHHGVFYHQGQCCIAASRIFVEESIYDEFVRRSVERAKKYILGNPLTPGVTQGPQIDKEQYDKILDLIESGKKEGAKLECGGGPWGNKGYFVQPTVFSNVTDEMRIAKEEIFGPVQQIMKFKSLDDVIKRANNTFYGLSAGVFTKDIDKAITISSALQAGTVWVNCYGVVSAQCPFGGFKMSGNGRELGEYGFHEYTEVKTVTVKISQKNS
The experiment in a line: Cell-based enzyme assay, retinoic acid production in ALDH1A1/H1299 cells. The following applies: cell-based. On the procedure: (§1) ALDH1A1 cDNA clone was purchased transfection-ready, and ALDH1A2 full-length cDNA was subcloned into pcDNA3, a mammalian expression vector. ALDH1A1 and ALDH1A2 were transfected into H1299 cells (CRL5803, ATCC) using Lipofectamine 3000 (Invitrogen) following the manufacturer's instructions. Stably transfected cells were selected with G418 (1.2 mg/ml) and referred to as ALDH1A1/H1299 and ALDH1A2/H1299. For the cell-based enzyme assays,
(§2) H1299 cells were routinely grown in RPMI-1640 (ATCC) supplemented with 10% fetal bovine serum (Atlanta Biologicals) in a 37 C, 5% CO2, moisture-saturated atmosphere. H1299, ALDH1A1/H1299 and ALDH1A2/H1299 cells were seeded into 12-well plates (1×10^5 cells/well) and grown for 2 days to confluence. Confluent cells were treated for 20 hours in the above media excluding serum with 2 μM all-trans-retinal, and varying concentrations of inhibitors. Serum-free media was used for the treatment period to avoid retinoic acid in serum. Retinoic acid concentrations were determined from cells and media, and specificity of inhibitors was determined by comparing retinoic acid levels in the presence and absence of the inhibitors in ALDH1A1- vs. ALDH1A2-expressing cells.

The target in test [1] is T2, ALDH1A2 (Homo sapiens, UniProt O94788).
T2 sequence (O94788 1-518): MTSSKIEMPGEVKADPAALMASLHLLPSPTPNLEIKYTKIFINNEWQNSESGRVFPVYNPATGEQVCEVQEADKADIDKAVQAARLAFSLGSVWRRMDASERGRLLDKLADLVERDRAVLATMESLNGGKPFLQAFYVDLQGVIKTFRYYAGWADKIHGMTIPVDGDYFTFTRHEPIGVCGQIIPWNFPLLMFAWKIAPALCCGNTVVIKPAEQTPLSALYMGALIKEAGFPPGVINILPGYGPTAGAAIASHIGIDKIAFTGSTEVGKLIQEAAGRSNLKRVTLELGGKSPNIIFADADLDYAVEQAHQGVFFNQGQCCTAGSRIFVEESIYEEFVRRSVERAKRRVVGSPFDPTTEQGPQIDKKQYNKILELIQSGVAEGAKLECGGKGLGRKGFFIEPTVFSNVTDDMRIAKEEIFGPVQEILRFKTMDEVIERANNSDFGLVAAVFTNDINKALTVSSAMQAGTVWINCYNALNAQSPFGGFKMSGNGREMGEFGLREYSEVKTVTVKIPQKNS
The experiment in a line: Cell-based enzyme assay, retinoic acid production in ALDH1A2/H1299 cells. To be noted: cell-based. On the procedure:
as §1, §2

In a further test the target is T3, ALDH2 (Homo sapiens, UniProt P05091).
T3 construct: histidine-tag (N); made in house; host or cells: bacterial expression (pETite vector, IPTG induction)
T3 sequence (P05091 18-517): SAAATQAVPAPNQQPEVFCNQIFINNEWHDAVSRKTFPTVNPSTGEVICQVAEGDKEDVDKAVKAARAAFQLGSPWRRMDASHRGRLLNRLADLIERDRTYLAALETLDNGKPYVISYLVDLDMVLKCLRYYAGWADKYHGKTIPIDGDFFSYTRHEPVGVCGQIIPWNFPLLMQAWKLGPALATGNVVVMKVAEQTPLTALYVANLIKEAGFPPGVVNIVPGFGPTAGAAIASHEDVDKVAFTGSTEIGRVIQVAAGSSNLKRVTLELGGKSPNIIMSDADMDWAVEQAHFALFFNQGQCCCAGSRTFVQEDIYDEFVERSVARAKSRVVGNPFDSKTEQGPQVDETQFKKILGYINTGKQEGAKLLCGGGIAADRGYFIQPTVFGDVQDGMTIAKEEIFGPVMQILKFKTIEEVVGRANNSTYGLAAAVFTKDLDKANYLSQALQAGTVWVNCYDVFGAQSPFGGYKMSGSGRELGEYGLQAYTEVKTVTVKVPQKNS
The experiment in a line: Purified ALDH2 assay with propanal, NADH fluorescence. The following applies: purified enzyme. It counts as biochemical. The source says: ALDHs were cloned into bacterial expression vector for in vitro enzyme assays and into mammalian expression vectors for cell-based enzyme assays. Human ALDH1A1 cDNA and human ALDH2 cDNA were purchased from OriGene (SC321535) and Open Biosystems (MHS4771-99611182), respectively. and human ALDH1A2 cDNA was cloned from human testis RNA using RT-PCR (Population Division of the Department of Economic and Social Affairs of the United Nations Secretariat. World Population prospects: the 2008 revision. Available at http://www.un.org/esa/population/ (Retrieved Sep. 30, 2011)). For bacterial expression, an open reading frame of ALDH1A1 and ALDH2 were subcloned into the pETite vector (Lucigen) with a 5′ histidine-tag and that of ALDH1A2 into a pET28 vector (Novagen) with a 3′ histidine-tag. Correct frame and sequences were verified through DNA sequencing (UW DNA sequencing facility). ALDHs were induced with 1 mM IPTG and purified using His.Bind resin (Novagen, San Diego, Calif.) and stored in a buffer containing 20 mM Hepes (pH 8), 150 mM KCl and 1 mM EDTA as previously described (Fierce, Y., de Morais Vieira, M., Piantedosi, R., Wyss, A., Blaner, W. S., and Paik, J. (2008) In vitro and in vivo characterization of retinoid synthesis from beta-carotene. Archives of biochemistry and biophysics 472, 126-138). […]
For this, 2 μg purified ALDH2, 20 μM propanal and varying concentrations of inhibitors were incubated at room temperature. Enzyme activity was determined by measuring fluorescence of NADH (Ex, 350 nm/Em, 460 nm) using a Victor3 plate reader (PerkinElmer), and initial velocity was calculated from two consecutive readings over 1 minute.

In test [2] the target is T2, ALDH1A2. The test can be described thus: Inhibitor screening using purified enzymes: ALDH1A2 activity, retinoic acid production by HPLC (5 uM initial screen, then IC50). More on the design: histidine-tag (C); made in house; host or cells: bacterial expression (pET28 vector, IPTG induction). Format: biochemical. The following applies: purified enzyme. From the text: ALDHs were cloned into bacterial expression vector for in vitro enzyme assays and into mammalian expression vectors for cell-based enzyme assays. Human ALDH1A1 cDNA and human ALDH2 cDNA were purchased from OriGene (SC321535) and Open Biosystems (MHS4771-99611182), respectively. and human ALDH1A2 cDNA was cloned from human testis RNA using RT-PCR (Population Division of the Department of Economic and Social Affairs of the United Nations Secretariat. World Population prospects: the 2008 revision. Available at http://www.un.org/esa/population/ (Retrieved Sep. 30, 2011)). For bacterial expression, an open reading frame of ALDH1A1 and ALDH2 were subcloned into the pETite vector (Lucigen) with a 5′ histidine-tag and that of ALDH1A2 into a pET28 vector (Novagen) with a 3′ histidine-tag. Correct frame and sequences were verified through DNA sequencing (UW DNA sequencing facility). ALDHs were induced with 1 mM IPTG and purified using His.Bind resin (Novagen, San Diego, Calif.) and stored in a buffer containing 20 mM Hepes (pH 8), 150 mM KCl and 1 mM EDTA as previously described (Fierce, Y., de Morais Vieira, M., Piantedosi, R., Wyss, A., Blaner, W. S., and Paik, J. (2008) In vitro and in vivo characterization of retinoid synthesis from beta-carotene. Archives of biochemistry and biophysics 472, 126-138).
ALDH1A1 and ALDH1A2 activity was determined as previously reported (Beedle M T, Stevison F, Zhong G, Topping T, Hogarth C, Isoherranen N, Griswold M D. Sources of All-Trans Retinal Oxidation Independent of the Aldehyde Dehydrogenase 1A Isozymes Exist in the Postnatal Testis. Biol Reprod. 2018 Sep. 21. doi: 10.1093/biolre/ioy200). Briefly, purified enzymes were incubated in a buffer containing 10 mM HEPES buffer (pH 8.0), 150 mM potassium chloride and 2 mM EDTA with 2 mM NAD. Retinoic acid production was determined using HPLC as previously reported (Amory J K, Muller C H, Shimshoni A J, Isoherranen N, Paik J, Moreb J S, Amory D W, Evanoff R, Goldstein A S, Griswold M D. Suppression of spermatogenesis by bisdichloroacetyldiamines is mediated by inhibition of testicular retinoic acid biosynthesis. Journal of Andrology 2011; 32(1):111-119). Inhibitors were diluted in DMSO and added to the reactions. […] For initial screening of inhibitors for ALDH1A2, 1 μg ALDH1A2, 5 μM all-trans-retinal and 5 μM inhibitors were incubated for 15 min at 37° C. […] For this purpose, 0.5 μg ALDH1A2 and […] were incubated for 5 minutes at 37° C. with varying concentrations of inhibitors. To determine specificity toward ALDH1A2, the IC50 for […]

A word on the EC50: it is the concentration at which the effect is half-maximal. One may read the IC50 as the midpoint of a concentration-inhibition curve. A high value points to a need for much substance.

With “1-(4-Hydroxymethylphenyl)-3-[4-(methylsulfonyl)phenyl]-N-(3-fluorophenyl)-1H-pyrazole-4-carboxamide [Compound 282]”, the EC50 was over 20 µM on ALDH1A1 and 0.24 µM on ALDH1A2 [1].

Regarding “2-(Acetyloxy)phenyl 1-(4-fluorophenyl)-3-[4-(methylsulfonyl)phenyl]-1H-pyrazole-4-carboxylate [Compound 293]”, the EC50 is over 20 µM on ALDH1A1 and 0.07 µM on ALDH1A2 [1].

Turning to `CC(=O)Oc1ccc(-c2nn(-c3ccccc3)cc2C=O)cc1` [Cmpd 35], the EC50 on ALDH1A1 is 3.38 µM; at ALDH1A2 [1], 0.952 µM.

As to `CS(=O)(=O)c1ccc(-c2nn(-c3cccc(Cl)c3)cc2C(=O)Nc2ccccc2O)cc1` [Compound 240, N-(2-Hydroxyphenyl)-3-[4-(methylsulfonyl)phenyl]-1-(3-chlorophenyl)-1H-pyrazole-4-carboxamide], the values for the IC50 against ALDH2 and against ALDH1A2 [2] were 14.2 µM and 0.036 µM, respectively. On ALDH1A2 [1], the EC50 is under 0.5 µM.

Turning to `CS(=O)(=O)c1ccc(-c2nn(-c3ccc(F)cc3)cc2C(=O)Nc2ccccc2O)cc1` [Compound 242, N-(2-Hydroxyphenyl)-3-[4-(methylsulfonyl)phenyl]-1-(4-fluorophenyl)-1H-pyrazole-4-carboxamide], the concentration for half-maximal inhibition (IC50) was 6.32 µM on ALDH2 and 0.045 µM against ALDH1A2 [2]. The molecule further returned an EC50 at ALDH1A2 [1] of under 0.5 µM.

Regarding `CS(=O)(=O)c1ccc(-c2nn(-c3cccc(F)c3)cc2C(=O)Nc2cccc(C(F)(F)F)c2)cc1` [Compound 250, N-(3-Trifluoromethyphenyl)-3-[4-(methylsulfonyl)phenyl]-1-(3-fluorophenyl)-1H-pyrazole-4-carboxamide], the IC50 amounted to 85.8 µM at ALDH2 and 0.291 µM against ALDH1A2 [2].

`CS(=O)(=O)c1ccc(-c2nn(-c3ccccc3)cc2C(=O)Nc2cccnc2)cc1` [Compound 253, 3-[4-(Methylsulfonyl)phenyl]-1-phenyl-N-(pyridin-3-yl)-1H-pyrazole-4-carboxamide]: the IC50 against ALDH2 is 10 µM; on ALDH1A2 [2], 0.059 µM.

For the molecule `CS(=O)(=O)c1ccc(-c2nn(-c3cccc(C#N)c3)cc2C(=O)Nc2cccc(C(F)(F)F)c2)cc1` [Compound 270, 1-(3-Cyanophenyl)-N-(3-trifluoromethylphenyl)-3-[4-(methylsulfonyl)phenyl]-1H-pyrazole-4-carboxamide], the IC50 against ALDH2 amounted to 91.7 µM; at ALDH1A2 [2] it was 0.346 µM.

`CS(=O)(=O)c1ccc(-c2nn(-c3ccc(C(N)=O)cc3)cc2C(=O)Nc2cccc(F)c2)cc1` [Compound 283, 1-(4-Carbomylphenyl)-3-[4-(methylsulfonyl)phenyl]-N-(3-fluorophenyl)-1H-pyrazole-4-carboxamide]: the EC50 at ALDH1A1 is 18.4 µM; on ALDH1A2 [1], 0.4 µM.

Consider `CS(=O)(=O)c1ccc(-c2nn(-c3ccc(C(=O)NO)cc3)cc2C(=O)Nc2cccc(F)c2)cc1` [Compound 284, 1-(4-Hydroxycarbomylphenyl)-3-[4-(methylsulfonyl)phenyl]-N-(3-fluorophenyl)-1H-pyrazole-4-carboxamide], for which the results for the EC50 at ALDH1A1 and at ALDH1A2 [1] were 1.93 µM and 0.04 µM, respectively.

For the molecule `O=C(c1sccc1Cl)N1CCN(c2ccc([N+](=O)[O-])c(N3CCCC3)c2)CC1` [Compound 324, {4-[4-Nitro-3-(pyrrolidin-1-yl)phenyl]piperazin-1-yl}(3-chlorothiophen-2-yl)methanone], the IC50 against ALDH2 worked out at 5.22 µM; against ALDH1A2 [2], 0.142 µM.

For the molecule `O=C(c1ccc(O)s1)N1CCN(c2ccc([N+](=O)[O-])c(N3CCCC3)c2)CC1` [Compound 335], the half-maximal inhibitory concentration (IC50) was determined as 2.07 µM against ALDH2 and 0.342 µM on ALDH1A2 [2].
